Source: US20220332695A1, “UREA DERIVATIVES AS CB1 ALLOSTERIC MODULATORS” (RTI INTERNATIONAL, priority 2019, published 2022)
Read-outs that look alike come from different tables or passages of the source.

Assays:
[1] = target: T1, hCB1R (Homo sapiens, UniProt P21554); assay: Calcium mobilization assay, antagonist mode against CP55,940; format: cell-based; parameters: expressed in transfected cells; host or cells: CHO-RD-HGA16 cells (parental line from Molecular Devices); conditions: CHO cells expressing human CB1R; against CP55,940 (100 nM); mean ± SEM; read-out: hCB1R Calcium assay IC50
T1 sequence (P21554 whole entry): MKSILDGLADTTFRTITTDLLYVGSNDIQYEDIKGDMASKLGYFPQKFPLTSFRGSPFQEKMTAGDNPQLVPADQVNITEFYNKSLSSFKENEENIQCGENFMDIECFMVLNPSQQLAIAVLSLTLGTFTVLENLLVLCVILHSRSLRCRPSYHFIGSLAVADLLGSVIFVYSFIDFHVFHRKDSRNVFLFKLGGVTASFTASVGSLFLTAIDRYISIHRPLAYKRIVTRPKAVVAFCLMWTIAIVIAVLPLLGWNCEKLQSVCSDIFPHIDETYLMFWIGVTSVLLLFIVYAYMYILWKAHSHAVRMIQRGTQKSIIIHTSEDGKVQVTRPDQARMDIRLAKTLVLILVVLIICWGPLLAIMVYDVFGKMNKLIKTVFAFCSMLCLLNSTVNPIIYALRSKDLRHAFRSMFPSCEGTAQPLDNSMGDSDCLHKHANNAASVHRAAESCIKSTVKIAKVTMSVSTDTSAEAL
Experimental: Calcium Mobilization Assay: CHO-RD-HGA16 cells (Molecular Devices, San Jose, Calif., United States of America) stably expressing the human CB1 receptor were plated into 96-well black-walled assay plates at 25,000 cells/well in 100 pL of Ham's F12 (supplemented with 10% fetal bovine serum, 100 units of penicillin/streptomycin, and 100 µg/mL Normocin) and incubated overnight at 37° C., 5% CO2. Calcium 5 dye (Molecular Devices, San Jose, Calif., United States of America) was reconstituted according to the manufacturer's instructions. The reconstituted dye was diluted 1:40 in prewarmed (37° C.) assay buffer (1x HBSS, 20 mM HEPES, 2.5 mM probenecid, pH 7.4 at 37° C.). Growth medium was removed, and the cells were gently washed with 100 pL of prewarmed (37° C.) assay buffer. The cells were incubated for 45 min at 37° C., 5% CO2 in 200 pL of the diluted Calcium 5 dye solution. […] Serial dilutions of the test compounds were prepared at 10x the desired final concentration in 2.25% BSA/4.5% DMSO/4.5% EtOH/assay buffer. After the dye loading incubation period, the cells were pretreated with 25 pL of the test compound serial dilutions and incubated for 15 min at 37° C. After the pretreatment incubation period, the plate was read with a FLIPR Tetra (Molecular Devices, San Jose, Calif., United States of America). Calcium-mediated changes in fluorescence were monitored every 1 s over a 90 s time period, with the Tetra adding 25 pL of the CP55,940 EC80 concentration at the 10s time point (excitation/emission: 485/525 nm). Relative fluorescence units (RFU) were plotted against the log of compound concentrations. For agonist screens, the above procedure was followed except that cells were pretreated with 2.25% BSA/4.5% DMSO/4.5% EtOH/assay buffer and the Tetra added single concentration dilutions of the test compounds prepared at 10x the desired final concentration in 0.25% BSA/0.5% DMSO/0.5% EtOH/assay buffer. Test compound RFUs were compared to the CP55,940 Emax RFUs to generate % Emax values.
Data Analysis: For calcium mobilization experiments, data were fit to a three-parameter logistic curve to generate IC50 values (GraphPad Prism 6.0, Graphpad Software, San Diego, Calif., United States of America).

[2] = target: T1, hCB1R; assay: [35S]GTPγS binding assay in HEK cells stably expressing human CB1R; format: biochemical; parameters: expressed in transfected cells; host or cells: HEK (HEK293) cells, membranes; conditions: [CP] = 100 nM, mean (95% confidence interval), read-out: hCB1R [35S]GTPγS binding assay IC50
Experimental: (§1) [^35S]GTPγS Binding Assay: For receptor signaling, membranes (10 μg protein) from either ICR mouse cerebellum mice (6-8 weeks old; Enviga
(§2) Non-specific binding was determined by adding 30 μM unlabeled GTPyS. Concentration response curves for allosteric modulators were conducted in the presence of CP55,940 (100 nM or 1 μM) to calculate 1050 values.
(§3) For [^35S]GTPyS experiments, data were normalized to maximal CP55,940 (100 nM) stimulation in the absence of test compound (i.e., vehicle=100%).

[3] = target: T2, mouse CB1R (Mus musculus, UniProt P47746); assay: [35S]GTPγS binding assay in mouse cerebellum membranes; format: biochemical; conditions: for IC50: mouse cerebellum membrane, read-out: mCB1R GTPγS IC50
T2 construct: membranes (10 μg protein) from either ICR mouse cerebellum mice; from tissue; host or cells: cerebellum membranes of ICR mice
T2 sequence (P47746 whole entry): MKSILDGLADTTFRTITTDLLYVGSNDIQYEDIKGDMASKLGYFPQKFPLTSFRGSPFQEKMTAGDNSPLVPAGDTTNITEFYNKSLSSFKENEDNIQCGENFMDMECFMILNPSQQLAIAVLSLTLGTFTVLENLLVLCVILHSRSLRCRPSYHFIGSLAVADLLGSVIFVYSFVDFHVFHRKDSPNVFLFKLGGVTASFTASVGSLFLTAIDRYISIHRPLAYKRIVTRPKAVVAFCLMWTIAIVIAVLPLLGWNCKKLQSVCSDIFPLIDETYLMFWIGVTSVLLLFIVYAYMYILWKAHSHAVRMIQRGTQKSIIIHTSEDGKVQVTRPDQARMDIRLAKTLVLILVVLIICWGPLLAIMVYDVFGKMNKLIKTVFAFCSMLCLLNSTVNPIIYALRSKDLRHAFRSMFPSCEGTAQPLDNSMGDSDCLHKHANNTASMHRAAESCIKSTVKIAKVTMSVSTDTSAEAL
Experimental: as §1, §2, §3
Select compounds were evaluated in the CP55,940-induced [^35S]GTPyS binding assays using mouse cerebellum membrane at two CP55,940 concentrations, 100 nM and 1μM.

[4] = target: T1, hCB1R; assay: Real-time BRET CAMYEL cAMP assay in HEK293 cells expressing human CB1; format: cell-based; parameters: expressed in transfected cells; host or cells: HEK293 cells stably transfected with human CB1, transiently transfected with pcDNA3L-His-CAMYEL sensor; conditions: for IC50: [CP] = 100 nM, forskolin-stimulated cAMP
Experimental: cAMP Assay: The cAMP assay was performed as previously described. […] Briefly, forskolin (FSK)-stimulated cyclic adenosine monophosphate (cAMP) production was measured in real-time using a transfected bioluminescence resonance energy transfer (BRET) cAMP sensor. The plasmid encodes a cAMP binding domain (Epac1) flanked by yellow fluorescent protein (YFP) and Renilla Luciferase (RLuc) assay, the latter of which can oxidize coelenterazine H and produce a photon as a byproduct. When cAMP is bound to the Epac1 domain, it separates RLuc and YFP so only Rluc emits a photon at a wavelength of 460 nm. When cAMP is not bound, RLuc can excite YFP, emitting light at wavelength 535 nm. A plate reader measures both wavelengths and their ratio, 460/535, is calculated to quantify cAMP levels where increases in the ratio indicate increases in cAMP. Human Embryonic Kidney 293 (HEK293) cells stably transfected with the human cannabinoid type-1 (C131) were maintained at 37° C. at 5% CO2 and seeded in 100 mM dishes for transfection. The next day, cells were given fresh growth media and transfected with 5 pg of pcDNA3L-His-CAMYEL using linear polyethyleneimine (25 kDa, Polysciences, Warrington, Pennsylvania, United States of America) in 1:6 DNA:PEI (ATCC, Manassas, Virginia, United States of America) ratio. The next day, cells were lifted using 1 mM EDTA in PBS and spun down at 200xg for 5 min. The supernatant was removed, and cells were resuspended in growth media and plated on poly-D-lysine (Sigma Aldrich, St. Louis, Missouri, United States of America) coated white 96 well plates at 60,000 cells per well, filling 2 columns of 8 wells each per plate, i.e. 8 samples in duplicate per plate (Perkin Elmer, Waltham, Massachusetts,
United States of America). The following day, media was removed, cells were rinsed with PBS and buffers/reagents/drugs added as following: At 0 min, 175 of stimulation buffer (5 mg/ml bovine serum albumin in HBSS including Ca^2+ and Mg^2+); at 10 min, 25 μL of allosteric modulators added; at 15 min: 25 μL coelenterazine added (5 μM final); at 25 min, 25 μL of forskolin (10 final) with or without CP55,940 (100 nM final) added. […] Ratio of 460/535 is calculated for each time point and plotted across time and area under the curve analysis is conducted for each replicate and averaged by condition/day where each day serves as an independent experiment. Data were calculated as %FSK using the formula [(sample-basal)/(forskolin-basal)×100]. IC50 values were calculated from these normalized concentration-response data using Prism 6 (Graphpad Software, San Diego, Calif., United States of America) using 3 parameter non-linear regression. Data are plotted as mean of at least N=3 independent experiments either normalized to forskolin (concentration response data) or the calculated 460/535 BRET ratio (time course data).

Compound: O=C(Nc1ccc(Cl)cc1)Nc1cc(-c2ccccc2)cs1 [Compound 12, 1-(4-Chlorophenyl)-3-(4-phenylthiophen-2-yl)urea]
- IC50 [1]: 37 ± 2 nM
- IC50 [2]: 667 nM
- activity in [35S]GTPγS binding assay against mouse CB1R (in words) ([3]; compared with compound 2): weaker potency

Compound: O=C(Nc1ccc(Cl)cc1)Nc1ccc(-c2ccc(F)cc2)s1 [Compound 18, 1-(4-Chlorophenyl)-3-[5-(4-fluorophenyl)thiophen-2-yl]urea]
- IC50 [1]: 40 ± 2 nM
- IC50 [2]: 537 nM
- IC50 ([3]; [CP] = 100 nM): 174 nM
- IC50 ([3]; [CP] = 1 uM): 145 nM

Compound: O=C(Nc1ccc(Cl)cc1)Nc1ccc(-c2ccccc2Cl)s1 [Compound 21, 1-(4-Chlorophenyl)-3-[5-(2-chlorophenyl)thiophen-2-yl]urea]
- IC50 [4]: 1190 nM
- inverse agonism in cAMP assay ([4]; concentrations up to 10 μM): displayed inverse agonism
- IC50 [1]: 21 ± 2 nM
- IC50 [2]: 272 nM
- IC50 ([3]; [CP] = 100 nM): 363 nM
- IC50 ([3]; [CP] = 1 uM): 204 nM

Compound: O=C(Nc1ccc(Cl)cc1)Nc1ccc(-c2cc(Cl)cc(Cl)c2)s1 [Compound 25, 1-(4-Chlorophenyl)-3-[5-(3,5-dichlorophenyl)thiophen-2-yl]urea]
- IC50 [4]: > 10000 nM
- IC50 [1]: 92 ± 12 nM
- IC50 [2]: 6330 nM
- IC50 ([3]; [CP] = 100 nM): 3310 nM
- IC50 ([3]; [CP] = 1 uM): 2400 nM

Compound: CC(=O)c1cccc(-c2ccc(NC(=O)Nc3ccc(Cl)cc3)s2)c1 [Compound 26, 3-[5-(3-Acetylphenyl)thiophen-2-yl]-1-(4-chlorophenyl)urea]
- IC50 [1]: 108 ± 17 nM
- IC50 [2]: 3430 nM

Compound: COC(=O)c1cccc(-c2ccc(NC(=O)Nc3ccc(Cl)cc3)s2)c1 [Compound 27, Methyl 3-(5-{[(4-chlorophenyl)carbamoyl]amino}thiophen-2-yl)benzoate]
- IC50 [1]: 345 ± 48 nM
- IC50 [2]: 2350 nM

Compound: CS(=O)(=O)c1cccc(-c2ccc(NC(=O)Nc3ccc(Cl)cc3)s2)c1 [Compound 28, 1-(4-Chlorophenyl)-3-[5-(3-methanesulfonylphenyl)thiophen-2-yl]urea]
- IC50 [1]: 501 ± 58 nM
- IC50 [2]: 3230 nM

Compound: COc1ccccc1-c1ccc(NC(=O)Nc2ccc(Cl)cc2)s1 [Compound 29, 1-(4-Chlorophenyl)-3-[5-(2-methoxyphenyl)thiophen-2-yl]urea]
- IC50 [1]: 58 nM
- IC50 [2]: 2020 nM

Compound: COc1cccc(-c2ccc(NC(=O)Nc3ccc(Cl)cc3)s2)c1 [Compound 30, 1-(4-Chlorophenyl)-3-[5-(3-methoxyphenyl)thiophen-2-yl]urea]
- IC50 [4]: 6350 nM
- IC50 [1]: 61 nM
- IC50 [2]: 3280 nM
- IC50 ([3]; [CP] = 100 nM): 3020 nM
- IC50 ([3]; [CP] = 1 uM): 1620 nM

Compound: COc1ccc(-c2ccc(NC(=O)Nc3ccc(Cl)cc3)s2)cc1 [Compound 31, 1-(4-Chlorophenyl)-3-[5-(4-methoxyphenyl)thiophen-2-yl]urea]
- IC50 [4]: 1850 nM
- IC50 [1]: 31 ± 2 nM
- IC50 [2]: 449 nM
- IC50 ([3]; [CP] = 100 nM): 110 nM
- IC50 ([3]; [CP] = 1 uM): 120 nM

Compound: Cc1cccc(-c2ccc(NC(=O)Nc3ccc(Cl)cc3)s2)c1 [Compound 32, 1-(4-Chlorophenyl)-3-[5-(3-methylphenyl)thiophen-2-yl]urea]
- IC50 [1]: 48 ± 8 nM
- IC50 [2]: 1180 nM

Compound: CN(C)c1cccc(-c2ccc(NC(=O)Nc3ccc(Cl)cc3)s2)c1 [Compound 33, 1-(4-Chlorophenyl)-3-{5-[3-(dimethylamino)phenyl]thiophen-2-yl}urea]
- IC50 [4]: > 10000 nM
- IC50 [1]: 89 ± 14 nM
- IC50 [2]: 5020 nM
- IC50 ([3]; [CP] = 100 nM): 3470 nM
- IC50 ([3]; [CP] = 1 uM): 3310 nM

Compound: O=C(Nc1ccc(Cl)cc1)Nc1ccc(-c2cccnc2)s1 [Compound 34, 1-(4-Chlorophenyl)-3-[5-(pyridin-3-yl)thiophen-2-yl]urea]
- IC50 [1]: 107 ± 6 nM
- IC50 [2]: 298 nM
